# Patent publication US20040266826A1, “Thiophenylthiopyrane dioxides as mmp or tnf-alpha inhibitors” (priority 2001, published 2004)
# Target: T1, human MMP-9 (Homo sapiens, UniProt P14780)
# T1 construct: purchased Yagai, Japan
# Experiment: Inhibitory activity of human MMP-9 (commercial kit, degradation of FITC-labeled bovine type IV collagen)
# Assay type: biochemical
# Conditions: incubation 4 hours at 42° C.
# Method: Inhibitory Activity of Human MMP-9
# The inhibitory activity of test compounds against human MMP-9 were measured by using commercial kits (Yagai, Japan). Gelatinolytic activity was determined by monitoring the degradation of FITC-labeled bovine type IV collagen after incubation for 4 hours at 42° C. The amount of degraded collagen was estimated by measuring the fluorescence intensity at 495 nm (excitation) and 520 nm (emission).
# Inhibitory activity of human MMP-9 as mentioned above.
# T1 sequence (P14780 94-707): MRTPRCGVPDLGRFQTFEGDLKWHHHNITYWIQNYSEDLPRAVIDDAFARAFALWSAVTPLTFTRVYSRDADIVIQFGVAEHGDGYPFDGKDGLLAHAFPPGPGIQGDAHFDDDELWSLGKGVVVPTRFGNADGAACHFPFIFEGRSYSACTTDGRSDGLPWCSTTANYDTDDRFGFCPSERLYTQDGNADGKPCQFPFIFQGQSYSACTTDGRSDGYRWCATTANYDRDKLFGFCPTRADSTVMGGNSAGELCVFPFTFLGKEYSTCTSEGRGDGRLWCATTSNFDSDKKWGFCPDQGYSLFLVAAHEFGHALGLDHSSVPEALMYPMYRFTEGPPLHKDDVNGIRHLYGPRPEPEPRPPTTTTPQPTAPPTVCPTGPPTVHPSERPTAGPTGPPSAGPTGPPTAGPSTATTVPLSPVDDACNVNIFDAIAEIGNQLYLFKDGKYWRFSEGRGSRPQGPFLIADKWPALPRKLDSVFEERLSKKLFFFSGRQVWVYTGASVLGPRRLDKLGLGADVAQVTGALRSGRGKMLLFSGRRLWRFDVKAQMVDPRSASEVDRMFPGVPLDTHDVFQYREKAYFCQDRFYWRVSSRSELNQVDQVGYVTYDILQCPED
row,SMILES,IC50 [nM]
1,"O=C(O)C[C@]1(c2ccc(C#Cc3ccc(Cl)cc3)s2)CCCCS1(=O)=O [Example 179, ((2S)-2-{5-[(4-Chlorophenyl)ethynyl]thiophen-2-yl)-1,1-dioxo-3,4,5,6-tetrahydro-2H-thiopyran-2-yl)acetic acid]",7.17
2,"COc1ccc2sc(-c3ccc([C@@]4(CC(=O)O)CCCCS4(=O)=O)s3)cc2c1 [Example 51, {(2S)-2-[5-(5-Methoxybenzothiophen-2-yl)thiophen-2-yl]-1,1-dioxo-3,4,5,6-tetrahydro-2H-thiopyran-2-yl} acetic acid]",4.56
3,"O=C(O)C[C@]1(c2ccc(-c3cc4ccc(F)cc4s3)s2)CCCCS1(=O)=O [Example 97, {(2S)-1,1-Dioxo-2-[5-(6-fluorobenzothiophen-2-yl)thiophen-2-yl]-3,4,5,6-tetrahydro-2H-thiopyran-2-yl}acetic acid]",1.37

# More lines, now with the values ahead:
row,IC50 [nM],SMILES
1,16,"O=C(O)C[C@]1(c2ccc(-c3ccc(-c4cnco4)cc3)s2)CCCCS1(=O)=O [Example 3, [(2S)-2-[5-[4-(5-Oxazolyl)phenyl]thiophen-2-yl]-1,1-dioxo-3,4,5,6-tetrahydro-2H-thiopyran-2-yl]acetic acid]"
2,2.77,"O=C(O)C[C@]1(c2ccc(-c3ccc(-c4ccsc4)cc3)s2)CCCCS1(=O)=O [Example 35, ((2S)-1,1-Dioxo-2-{5-[4-(thiophen-3-yl)phenyl]-thiophen-2-yl}-3,4,5,6-tetrahydro-2H-thiopyran-2-yl)acetic acid]"

# Tested on: not given
# Experiment: not given
# Conditions: not given
row,SMILES,melting point [°C]
1,"O=C(O)C[C@]1(c2ccc(C#Cc3ccc(Cl)cc3)s2)CCCCS1(=O)=O [Example 179, ((2S)-2-{5-[(4-Chlorophenyl)ethynyl]thiophen-2-yl)-1,1-dioxo-3,4,5,6-tetrahydro-2H-thiopyran-2-yl)acetic acid]",203 to 204
2,"O=C(O)C[C@]1(c2ccc(-c3cc4cc(F)ccc4s3)s2)CCCCS1(=O)=O [Example 53, {(2S)-2-[5-(5-Fluorobenzothiophen-2-yl)thiophen-2-yl]-1,1-dioxo-3,4,5,6-tetrahydro-2H-thiopyran-2-yl} acetic acid]",219 to 221
3,"CCCC#Cc1ccc([C@@]2(CC(=O)O)CCCCS2(=O)=O)s1 [Example 178, ((2S)-1,1-Dioxo-2-(5-[1-pentynyl]thiophen-2-yl}-3,4,5,6-tetrahydro-2H-thiopyran-2-yl)acetic acid]",171 to 172
4,"COc1ccc2sc(-c3ccc([C@@]4(CC(=O)O)CCCCS4(=O)=O)s3)cc2c1 [Example 51, {(2S)-2-[5-(5-Methoxybenzothiophen-2-yl)thiophen-2-yl]-1,1-dioxo-3,4,5,6-tetrahydro-2H-thiopyran-2-yl} acetic acid]",215 to 218
5,"COc1ccc2cc(-c3ccc([C@@]4(CC(=O)O)CCCCS4(=O)=O)s3)sc2c1 [Example 52, {(2S)-2-[5-(6-Methoxybenzothiophen-2-yl)thiophen-2-yl]-1,1-dioxo-3,4,5,6-tetrahydro-2H-thiopyran-2-yl} acetic acid]",232 to 235

# Other lines, results leading:
row,melting point [°C],SMILES
1,172 to 173,"Cc1ccc(C#Cc2ccc([C@@]3(CC(=O)O)CCCCS3(=O)=O)s2)cc1 [Example 180, ((2S)-1,1-Dioxo-2-{5-[(4-methylphenyl)ethynyl]-thiophen-2-yl}-3,4,5,6-tetrahydro-2H-thiopyran-2-yl)acetic acid]"
2,209 to 213,"Cc1ccc2sc(-c3ccc([C@@]4(CC(=O)O)CCCCS4(=O)=O)s3)cc2c1 [Example 50, {(2S)-2-[5-(5-Methylbenzothiophen-2-yl)thiophen-2-yl]-1,1-dioxo-3,4,5,6-tetrahydro-2H-thiopyran-2-yl} acetic acid]"
3,230 to 232,"CNC(=O)c1ccc2cc(-c3ccc([C@@]4(CC(=O)O)CCCCS4(=O)=O)s3)ccc2c1 [Example 54, [(2S)-1,1-Dioxo-2-(5-{6-[methylcarbamoyl)naphthalen-2-yl}thiophen-2-yl)-3,4,5,6-tetrahydro-2H-thiopyran-2-yl]acetic acid]"
4,219 to 222,"CCOc1ccc2cc(-c3ccc([C@@]4(CC(=O)O)CCCCS4(=O)=O)s3)ccc2c1 [Example 48, {(2S)-1,1-Dioxo-2-[5-(6-ethoxynaphthalen-2-yl)thiophen-2-yl]-3,4,5,6-tetrahydro-2H-thiopyran-2-yl} acetic acid]"
5,260 to 265,"O=C(O)C[C@]1(c2ccc(-c3ccc4cc(-c5cnco5)ccc4c3)s2)CCCCS1(=O)=O [Example 43, ((2S)-1,1-Dioxo-2-{5-[6-(oxazol-5-yl)naphthalen-2-yl]thiophen-2-yl}-3,4,5,6-tetrahydro-2H-thiopyran-2-yl)acetic acid]"
6,184 to 185,"CC(C)Oc1ccc(-c2ccc([C@@]3(CC(=O)O)CCCCS3(=O)=O)s2)cc1 [Example 96, ((2S)-1,1-Dioxo-2-{5-[4-(1-methylethoxy)phenyl]-thiophen-2-yl}-3,4,5,6-tetrahydro-2H-thiopyran-2-yl) acetic acid]"
